Data taken from the NIST ThermoML archive (doi:10.1016/j.jct.2018.01.025).
Numbers after ± are expanded uncertainties.

Conditions: Liquid; for mass density: Vibrating tube method

CCCC[N+](C)(C)C.O=S(=O)([N-]S(=O)(=O)C(F)(F)F)C(F)(F)F [butyltrimethylammonium bis(trifluoromethylsulfonyl)imide]
Conditions	viscosity [mPa·s]
278.15 K, 101.33 kPa, Concentric cylinders viscometry	360.1 ± 9.7
283.15 K, 101.33 kPa, Concentric cylinders viscometry	253.8 ± 5.8
288.15 K, 101.33 kPa, Concentric cylinders viscometry	184.7 ± 3.6
293.15 K, 101.33 kPa, Concentric cylinders viscometry	138.3 ± 2.3
298.15 K, 101.33 kPa, Concentric cylinders viscometry	105.4 ± 1.5
298.6 K, 101.33 kPa, Vibrating wire viscometry	102.17 ± 1.9
301.53 K, 101.33 kPa, Vibrating wire viscometry	87.01 ± 1.6
303.15 K, 101.33 kPa, Concentric cylinders viscometry	82.19 ± 1
303.15 K, 10000 kPa, Falling or rolling sphere viscometry	93.4 ± 3.8
303.15 K, 15000 kPa, Falling or rolling sphere viscometry	99.9 ± 4.1
303.15 K, 25000 kPa, Falling or rolling sphere viscometry	114 ± 5
303.15 K, 50000 kPa, Falling or rolling sphere viscometry	158.2 ± 7.9
303.15 K, 75000 kPa, Falling or rolling sphere viscometry	218.5 ± 13
303.15 K, 100000 kPa, Falling or rolling sphere viscometry	300.8 ± 20
303.15 K, 125000 kPa, Falling or rolling sphere viscometry	413.1 ± 31
303.15 K, 150000 kPa, Falling or rolling sphere viscometry	566.6 ± 47
304.45 K, 101.33 kPa, Vibrating wire viscometry	76.4 ± 1.3
307.33 K, 101.33 kPa, Vibrating wire viscometry	66.1 ± 1.1
308.15 K, 101.33 kPa, Concentric cylinders viscometry	65.33 ± 0.74
310.28 K, 101.33 kPa, Vibrating wire viscometry	58.41 ± 0.92
313.15 K, 101.33 kPa, Concentric cylinders viscometry	53.01 ± 0.57
313.15 K, 10000 kPa, Falling or rolling sphere viscometry	59.7 ± 2.1
313.15 K, 15000 kPa, Falling or rolling sphere viscometry	63.7 ± 2.3
313.15 K, 25000 kPa, Falling or rolling sphere viscometry	72.4 ± 2.7
313.15 K, 50000 kPa, Falling or rolling sphere viscometry	98.5 ± 4.1
313.15 K, 75000 kPa, Falling or rolling sphere viscometry	132.2 ± 6.2
313.15 K, 100000 kPa, Falling or rolling sphere viscometry	175.9 ± 9.3
313.15 K, 125000 kPa, Falling or rolling sphere viscometry	232.5 ± 14
313.15 K, 150000 kPa, Falling or rolling sphere viscometry	306 ± 20
313.34 K, 101.33 kPa, Vibrating wire viscometry	50.51 ± 0.78
318.15 K, 101.33 kPa, Concentric cylinders viscometry	43.22 ± 0.48
323.15 K, 101.33 kPa, Concentric cylinders viscometry	35.9 ± 0.4
323.15 K, 10000 kPa, Falling or rolling sphere viscometry	40.1 ± 1.5
323.15 K, 15000 kPa, Falling or rolling sphere viscometry	42.6 ± 1.5
323.15 K, 25000 kPa, Falling or rolling sphere viscometry	47.9 ± 1.7
323.15 K, 50000 kPa, Falling or rolling sphere viscometry	63.5 ± 2.3
323.15 K, 75000 kPa, Falling or rolling sphere viscometry	83.6 ± 3.3
323.15 K, 100000 kPa, Falling or rolling sphere viscometry	109.1 ± 4.7
323.15 K, 125000 kPa, Falling or rolling sphere viscometry	142 ± 6.8
323.15 K, 150000 kPa, Falling or rolling sphere viscometry	183.4 ± 9.8
323.33 K, 101.33 kPa, Vibrating wire viscometry	35.59 ± 0.57
328.15 K, 101.33 kPa, Concentric cylinders viscometry	30.18 ± 0.34
328.27 K, 101.33 kPa, Vibrating wire viscometry	29.72 ± 0.47
333.15 K, 101.33 kPa, Concentric cylinders viscometry	25.64 ± 0.29
333.15 K, 10000 kPa, Falling or rolling sphere viscometry	28.2 ± 1
333.15 K, 15000 kPa, Falling or rolling sphere viscometry	29.8 ± 1.1
333.15 K, 25000 kPa, Falling or rolling sphere viscometry	33.3 ± 1.2
333.15 K, 50000 kPa, Falling or rolling sphere viscometry	43.4 ± 1.6
333.15 K, 75000 kPa, Falling or rolling sphere viscometry	56.1 ± 2
333.15 K, 100000 kPa, Falling or rolling sphere viscometry	71.9 ± 2.7
333.15 K, 125000 kPa, Falling or rolling sphere viscometry	91.8 ± 3.7
333.15 K, 150000 kPa, Falling or rolling sphere viscometry	116.8 ± 5.2
338.15 K, 101.33 kPa, Concentric cylinders viscometry	22.02 ± 0.25
343.15 K, 101.33 kPa, Concentric cylinders viscometry	19.08 ± 0.21
343.15 K, 10000 kPa, Falling or rolling sphere viscometry	21 ± 0.8
343.15 K, 15000 kPa, Falling or rolling sphere viscometry	22 ± 0.8
343.15 K, 25000 kPa, Falling or rolling sphere viscometry	24.3 ± 0.9
343.15 K, 50000 kPa, Falling or rolling sphere viscometry	31 ± 1.1
343.15 K, 75000 kPa, Falling or rolling sphere viscometry	39.5 ± 1.4
343.15 K, 100000 kPa, Falling or rolling sphere viscometry	50.3 ± 1.8
343.15 K, 125000 kPa, Falling or rolling sphere viscometry	63.8 ± 2.3
343.15 K, 150000 kPa, Falling or rolling sphere viscometry	81 ± 3.1
348.15 K, 101.33 kPa, Concentric cylinders viscometry	16.65 ± 0.19
353.15 K, 101.33 kPa, Concentric cylinders viscometry	14.74 ± 0.17
353.15 K, 10000 kPa, Falling or rolling sphere viscometry	15.6 ± 0.6
353.15 K, 15000 kPa, Falling or rolling sphere viscometry	16.5 ± 0.6
353.15 K, 25000 kPa, Falling or rolling sphere viscometry	18.3 ± 0.7
353.15 K, 50000 kPa, Falling or rolling sphere viscometry	23.4 ± 0.8
353.15 K, 75000 kPa, Falling or rolling sphere viscometry	29.4 ± 1.1
353.15 K, 100000 kPa, Falling or rolling sphere viscometry	36.6 ± 1.3
353.15 K, 125000 kPa, Falling or rolling sphere viscometry	45.3 ± 1.6
353.15 K, 150000 kPa, Falling or rolling sphere viscometry	55.7 ± 2
358.15 K, 101.33 kPa, Concentric cylinders viscometry	12.99 ± 0.15
363.15 K, 101.33 kPa, Concentric cylinders viscometry	11.58 ± 0.13
368.15 K, 101.33 kPa, Concentric cylinders viscometry	10.38 ± 0.12
373.15 K, 101.33 kPa, Concentric cylinders viscometry	9.36 ± 0.11

101.33 kPa
Conditions	mass density [kg/m3]
278.15 K	1411.5 ± 2.3
283.15 K	1406.6 ± 2.3
288.15 K	1401.9 ± 2.3
293.15 K	1397.2 ± 2.3
298.15 K	1392.8 ± 2.3
303.15 K	1388.4 ± 2.3
308.15 K	1384 ± 2.3
313.15 K	1379.7 ± 2.3
318.15 K	1375.4 ± 2.3
323.15 K	1371.1 ± 2.3
328.15 K	1366.8 ± 2.3
333.15 K	1362.6 ± 2.3
338.15 K	1358.4 ± 2.3
343.15 K	1354.2 ± 2.3
348.15 K	1350 ± 2.3
353.15 K	1345.7 ± 2.3
358.15 K	1341.4 ± 2.3
363.15 K	1336.8 ± 2.3
368.15 K	1332.5 ± 2.3
373.15 K	1328.4 ± 2.3
